# In PMC4032192 (Journal of Medicinal Chemistry, 2014):
# Target: rat nNOS (Rattus norvegicus, UniProt P29476)
# Test: oxyhemoglobin NO capture assay, rat nNOS
# Type: biochemical
# Chain of rat nNOS (P29476 whole entry): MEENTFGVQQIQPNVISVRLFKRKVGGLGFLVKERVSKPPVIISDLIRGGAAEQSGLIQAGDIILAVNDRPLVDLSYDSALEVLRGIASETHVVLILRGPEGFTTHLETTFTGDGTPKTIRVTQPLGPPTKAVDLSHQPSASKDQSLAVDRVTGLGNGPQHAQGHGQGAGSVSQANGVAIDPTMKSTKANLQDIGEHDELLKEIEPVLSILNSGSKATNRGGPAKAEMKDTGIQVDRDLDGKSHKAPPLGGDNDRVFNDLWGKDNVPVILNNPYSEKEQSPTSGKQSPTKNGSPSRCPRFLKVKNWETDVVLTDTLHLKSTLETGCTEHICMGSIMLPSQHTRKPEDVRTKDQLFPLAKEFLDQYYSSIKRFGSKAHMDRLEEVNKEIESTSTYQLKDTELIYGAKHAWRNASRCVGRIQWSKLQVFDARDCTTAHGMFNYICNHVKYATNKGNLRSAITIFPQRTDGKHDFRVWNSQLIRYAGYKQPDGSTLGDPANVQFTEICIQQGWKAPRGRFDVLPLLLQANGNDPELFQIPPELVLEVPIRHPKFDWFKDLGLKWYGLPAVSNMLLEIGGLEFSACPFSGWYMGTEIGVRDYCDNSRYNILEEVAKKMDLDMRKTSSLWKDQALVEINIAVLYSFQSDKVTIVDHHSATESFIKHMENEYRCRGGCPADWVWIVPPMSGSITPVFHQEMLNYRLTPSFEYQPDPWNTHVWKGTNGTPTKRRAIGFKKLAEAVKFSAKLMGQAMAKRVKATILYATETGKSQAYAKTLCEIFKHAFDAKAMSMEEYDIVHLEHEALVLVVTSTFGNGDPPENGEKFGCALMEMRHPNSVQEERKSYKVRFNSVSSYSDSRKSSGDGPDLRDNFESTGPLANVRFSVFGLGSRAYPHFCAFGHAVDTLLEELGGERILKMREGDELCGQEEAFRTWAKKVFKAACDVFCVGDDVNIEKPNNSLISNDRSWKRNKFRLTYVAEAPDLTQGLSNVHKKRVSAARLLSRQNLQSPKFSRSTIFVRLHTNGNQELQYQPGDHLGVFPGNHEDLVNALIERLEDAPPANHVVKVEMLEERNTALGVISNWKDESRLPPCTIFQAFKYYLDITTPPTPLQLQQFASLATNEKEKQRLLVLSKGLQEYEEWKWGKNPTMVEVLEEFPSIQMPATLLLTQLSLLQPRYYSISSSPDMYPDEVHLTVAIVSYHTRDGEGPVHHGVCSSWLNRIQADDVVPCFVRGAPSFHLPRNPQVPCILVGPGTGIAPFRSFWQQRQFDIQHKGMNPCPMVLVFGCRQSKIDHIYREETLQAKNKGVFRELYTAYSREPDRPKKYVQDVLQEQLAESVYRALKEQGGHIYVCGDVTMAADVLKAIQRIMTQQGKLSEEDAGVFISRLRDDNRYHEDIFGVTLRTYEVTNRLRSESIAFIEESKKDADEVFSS
row,Ki [nM],Structure (SMILES)
1,~100,"Cc1cc(N)nc(CCc2cccc([C@H](N)Cc3cc(C)cc(N)n3)c2)c1 [Compound 3R, (R)-6-(2-Amino-2-(3-(2-(6-amino-4-methylpyridin-2-yl)ethyl)phenyl)ethyl)-4-methylpyridin-2-amine]"
2,~100,Cc1cc(N)nc(CCc2cccc(C(O)Cc3cc(C)cc(N)n3)c2)c1 (centres unmarked) [Compound 4]
